Data published in patent US12161748B2, “Topical formulations comprising tofacitinib” (TWi Biotechnology, Inc., priority 2018, dated 2024).
Structures can show the parent of a compound that is named as a salt.

What was measured:
[1] = Solubility study of tofacitinib citrate in various solvents (HPLC); format: physicochemical; details: for solubility: thermodynamic from solid
Method: A solubility study was conducted in the course of formulation development. The suspension was stirred overnight and filtered through 0.22 μm filter. The filtrate was diluted into suitable concentration.

[2] = Compatibility study of dissolved tofacitinib citrate with excipients, 60° C. seven days, HPLC; format: physicochemical; details: 1 Week
Excerpt: The total degradation products in the mixtures were further analyzed by HPLC.

- Solubility Descriptive Term ([1]; 0.1N HCl): Sparingly
- solubility ([1]; 0.1N HCl, simulated gastric fluid): 23900 µg/mL
- Solubility Descriptive Term ([1]; Dimethyl sulfoxide (DMSO)): Freely soluble
- Solubility Descriptive Term ([1]; Dimethyl sulfoxide (DMSO), listed as tofacitinib citrate): freely soluble
- Solubility Descriptive Term ([1]; Ethanol): Very slightly
- Solubility Descriptive Term ([1]; Ethanol, listed as tofacitinib citrate): very slightly soluble
- Solubility Descriptive Term ([1]; H2O): Slightly soluble
- Solubility Descriptive Term ([1]; H2O, listed as tofacitinib citrate): slightly soluble
- Solubility Descriptive Term ([1]; Propylene Glycol (PG)): Slightly soluble
- Solubility Descriptive Term ([1]; Propylene Glycol (PG), listed as tofacitinib citrate): slightly soluble
- solubility ([1]; aqueous buffer, pH 3.0, 50 mM Citrate Buffer): 600 µg/mL
- solubility ([1]; aqueous buffer, pH 4.5, 50 mM Acetate Buffer): 1810 µg/mL
- solubility ([1]; aqueous buffer, pH 6.8, 50 mM Phosphate Buffer): 120 µg/mL
- solubility ([1]; aqueous buffer, pH 7.5, 50 mM Phosphate Buffer): 120 µg/mL
- solubility ([1]; aqueous buffer, pH 9.0, 50 mM Phosphate Buffer): 120 µg/mL
- solubility ([1]; aqueous with cosolvent or surfactant or cyclodextrin, pH 4.5, 50 mM Acetate Buffer/PEG300 = 70/30): 3160 µg/mL
- solubility ([1]; aqueous with cosolvent or surfactant or cyclodextrin, pH 7.5, 50 mM Phosphate Buffer/PEG300 = 70/30): 1590 µg/mL
- solubility ([1]; dimethyl sulfoxide (DMSO), organic solvent or mixture): > 100000 µg/mL
- solubility ([1]; ethanol, organic solvent or mixture): 480 µg/mL
- Solubility Descriptive Term ([1]; pH 3.0, 50 mM Citrate Buffer): Very slightly
- Solubility Descriptive Term ([1]; pH 4.5, 50 mM Acetate Buffer): Slightly soluble
- Solubility Descriptive Term ([1]; pH 4.5, 50 mM Acetate Buffer/PEG300 = 70/30): Slightly soluble
- Solubility Descriptive Term ([1]; pH 6.8, 50 mM Phosphate Buffer): Very slightly
- Solubility Descriptive Term ([1]; pH 7.5, 50 mM Phosphate Buffer): Very slightly
- Solubility Descriptive Term ([1]; pH 7.5, 50 mM Phosphate Buffer/PEG300 = 70/30): Slightly soluble
- Solubility Descriptive Term ([1]; pH 9.0, 50 mM Phosphate Buffer): Very slightly
- solubility ([1]; propylene glycol (PG), organic solvent or mixture): 1920 µg/mL
- solubility ([1]; water, H2O): 3000 µg/mL
- Total Degradation Products [2]: 0.06%
SMILES: C[C@@H]1CCN(C(=O)CC#N)C[C@@H]1N(C)c1ncnc2[nH]ccc12 [Tofacitinib Citrate, 3-((3R,4R)-4-methyl-3-[methyl-(7H-pyrrolo[2,3-d]pyrimidin-4-yl)-amino]-piperidin-1-yl)-3-oxopropionitrile]
